# Results as given in patent US10058550B2, “Methods of treating heart failure” (priority 2015, dated 2018).
# Target: human APJ receptor (Homo sapiens (Human), UniProt P35414)
# Experiment: biochemical
# Type: biochemical
# Settings: read-out: Activity hAPJ SPA EC50 IP
# Summary of the method: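 Agonist-stimulated [35S]GTPγS (0.2 nM) binding was read by SPA after 90 min at room temperature. Buffer: 20 mM HEPES pH 7.5 with 5 mM MgCl2, 200 mM NaCl, 3 μM GDP, 0.1% BSA; membranes were from a stable human APJ CHO line. EC50 values are averages of independent runs, fitted by non-linear regression.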
# Chain of human APJ receptor (P35414 whole entry): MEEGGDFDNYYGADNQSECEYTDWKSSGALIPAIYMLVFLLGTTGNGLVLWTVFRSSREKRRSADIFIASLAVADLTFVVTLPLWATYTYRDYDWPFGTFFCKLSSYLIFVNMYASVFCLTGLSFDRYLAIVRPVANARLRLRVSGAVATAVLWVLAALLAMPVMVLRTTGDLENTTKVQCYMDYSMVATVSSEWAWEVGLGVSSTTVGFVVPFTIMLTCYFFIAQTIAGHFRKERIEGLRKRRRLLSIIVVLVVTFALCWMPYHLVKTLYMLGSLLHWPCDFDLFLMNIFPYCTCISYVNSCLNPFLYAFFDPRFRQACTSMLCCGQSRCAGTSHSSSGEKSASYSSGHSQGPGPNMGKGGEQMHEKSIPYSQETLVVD
row,SMILES,EC50
1,"COc1cccc(OC)c1-n1c(NS(=O)(=O)CCc2ccc(F)cc2C#N)nnc1-c1cccc(=O)[nH]1 [Example 461.0, 2-(2-cyano-4-fluorophenyl)-N-(4-(2,6-dimethoxyphenyl)-5-(6-oxo-1,6-dihydro-2-pyridinyl)-4H-1,2,4-triazol-3-yl)ethanesulfonamide]",670 nM
2,"COc1cccc(OC)c1-n1c(NS(=O)(=O)/C(C)=C(\C)c2ncc(F)cn2)nnc1-c1cncc(C)c1 [Example 504.0, (2E)-N-(4-(2,6-dimethoxyphenyl)-5-(5-methyl-3-pyridinyl)-4H-1,2,4-triazol-3-yl)-3-(5-fluoro-2-pyrimidinyl)-2-butene-2-sulfonamide]",18 nM
3,"COc1cccc(-c2nnc(NS(=O)(=O)/C(C)=C(\C)c3ncc(F)cn3)n2-c2c(OC)cccc2OC)n1 [Example 505.0, (2E)-N-(4-(2,6-dimethoxyphenyl)-5-(6-methoxy-2-pyridinyl)-4H-1,2,4-triazol-3-yl)-3-(5-fluoro-2-pyrimidinyl)-2-butene-2-sulfonamide]",1.9 nM
4,"COc1cccc(OC)c1-n1c(NS(=O)(=O)[C@H](C)[C@@H](C)c2ncc(C)cn2)nnc1-c1cccnc1 [Example 585.0, (2R,3S)—N-(4-(2,6-dimethoxyphenyl)-5-(3-pyridinyl)-4H-1,2,4-triazol-3-yl)-3-(5-methyl-2-pyrimidinyl)-2-butanesulfonamide]",25 nM
5,"COc1cccc(OC)c1-n1c(NS(=O)(=O)[C@@H](C)[C@H](OC)c2ncc(Cl)cn2)nnc1-c1cccnc1 [Example 591.0, (1R,2S)-1-(5-chloro-2-pyrimidinyl)-N-(4-(2,6-dimethoxyphenyl)-5-(3-pyridinyl)-4H-1,2,4-triazol-3-yl)-1-methoxy-2-propanesulfonamide]",0.21 nM
6,"COc1cccc(OC)c1-n1c(NS(=O)(=O)[C@H](C)[C@@H](OC)c2ncc(Cl)cn2)nnc1-c1cccnc1 [Example 592.0, (1S,2R)-1-(5-chloro-2-pyrimidinyl)-N-(4-(2,6-dimethoxyphenyl)-5-(3-pyridinyl)-4H-1,2,4-triazol-3-yl)-1-methoxy-2-propanesulfonamide]",10 nM
7,"CCO[C@H](c1ncc(Cl)cn1)[C@H](C)S(=O)(=O)Nc1nnc(-c2cncc(C)c2)n1-c1c(OC)cccc1OC [Example 610.0, (1R,2S)-1-(5-chloro-2-pyrimidinyl)-N-(4-(2,6-dimethoxyphenyl)-5-(5-methyl-3-pyridinyl)-4H-1,2,4-triazol-3-yl)-1-ethoxy-2-propanesulfonamide]",0.3 nM
8,"COc1cccc(OC)c1-n1c(NS(=O)(=O)[C@H](C)[C@@H](O)c2cnc(C)cn2)nnc1-c1cccnc1 [Example 614.0, (1S,2R)—N-(4-(2,6-dimethoxyphenyl)-5-(3-pyridinyl)-4H-1,2,4-triazol-3-yl)-1-hydroxy-1-(5-methyl-2-pyrazinyl)-2-propanesulfonamide]",1.7 nM
9,"COc1cccc(OC)c1-n1c(NS(=O)(=O)[C@@H](C)[C@H](O)c2cnc(C)cn2)nnc1-c1cccnc1 [Example 615.0, (1R,2S)—N-(4-(2,6-dimethoxyphenyl)-5-(3-pyridinyl)-4H-1,2,4-triazol-3-yl)-1-hydroxy-1-(5-methyl-2-pyrazinyl)-2-propanesulfonamide]",65 nM
10,"COc1cccc(OC)c1-n1c(NS(=O)(=O)[C@@H](C)[C@H](O)c2ncc(C)cn2)nnc1-c1cccnc1 [Example 616.0, (1R,2S)—N-(4-(2,6-dimethoxyphenyl)-5-(pyridin-3-yl)-4H-1,2,4-triazol-3-yl)-1-hydroxy-1-(5-methylpyrimidin-2-yl)propane-2-sulfonamide]",0.46 nM
11,"COc1cccc(OC)c1-n1c(NS(=O)(=O)CCc2ccc(F)cc2C#N)nnc1-c1cncc(C)c1 [Example 621.0, 2-(2-cyano-4-fluorophenyl)-N-(4-(2,6-dimethoxyphenyl)-5-(5-methyl-3-pyridinyl)-4H-1,2,4-triazol-3-yl)ethanesulfonamide]",0.84 nM
